Legend:
human hepatoma G2 cells = test: Cytotoxicity assay (XTT colorimetric), Hep G2; assay type: cell-based; conditions: Homo sapiens, HepG2; 48 h of drug exposure
rat glioma C6 cells = test: Cytotoxicity assay (XTT colorimetric), C6 cells; assay type: cell-based; conditions: Rattus norvegicus, C6; 48 h of drug exposure
[1] = tested on: transcriptional activity of hTERT; test: SEAP reporter assay of hTERT expression, PhTERT-SEAP (hTERT-BJ1); assay type: cell-based, human; conditions: Homo sapiens, hTERT-BJ1, read-out: Relative SEAP activity (%)
Outline: (§1)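 Cells seeded, grown 24 h at 37° C, refed, then exposed to varying drug amounts for another 24 h. Collected media heated 65° C for 10 min to kill heat-labile phosphatases, mixed with equal SEAP buffer (2 M diethanolamine, 1 mM MgCl2, 20 mM […]) plus 12 mM final p-nitrophenyl phosphate; rate of A405 increase measured.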

[2] = tested on: transcriptional activity of hTERT; test: SEAP reporter assay of hTERT expression, PhTERT-SEAP (H1299); assay type: cell-based, human; conditions: Homo sapiens, NCI-H1299, H1299, read-out: Relative SEAP activity (%)
Outline: as §1

[3] = MTT relative viability, PhTERT-SEAP (H1299) cells; conditions: human
[4] = MTT relative viability, PhTERT-SEAP (hTERT-BJ1) cells; conditions: human; for viability at 48 h, 1.9 µM / viability at 48 h, 19 µM / viability at 48 h, 190 µM: hTERT-BJ1 cells, stable PhTERT-SEAP reporter clone
[5] = tested on: iron-induced lipid peroxidation in rat brain homogenates; test: Iron-induced lipid peroxidation in rat brain homogenates; conditions: for Inhibition of LP(10 mM): mean percent inhibition (Table 3); for LP (%) (10 mM): relative percentage of inhibition (Table 1)

SMILES	IC50 (human hepatoma G2 cells)	IC50 (rat glioma C6 cells)	activity at 1.9 µM [1]	activity at 19 µM [1]	activity at 190 µM [1]	activity at 1.9 µM [2]	activity at 19 µM [2]	activity at 190 µM [2]	viability at 48 h, 1.9 µM [3]	viability at 48 h, 19 µM [3]	viability at 48 h, 190 µM [3]	viability at 48 h, 1.9 µM [4]	viability at 48 h, 19 µM [4]	viability at 48 h, 190 µM [4]	Inhibition of LP(10 mM) ([5]; 10 mM)	LP (%) (10 mM) ([5]; 10 mM)	also measured
O=C(Oc1cccc2c1C(=O)c1cccc(OC(=O)c3ccccc3Cl)c1C2=O)c1ccccc1Cl	0.04 ± 0.01 µM	40.7 ± 4.7 µM	120 ± 10.5%	116 ± 3.7%	97 ± 10.8%	93 ± 4.4%	101 ± 4.9%	97 ± 5.3%	74 ± 5.3%	34 ± 3.4%	30 ± 1.4%	107 ± 5.5%	92 ± 4.3%	40 ± 4%	5 ± 0.5%	–	–
O=C(Oc1cccc2c1C(=O)c1cccc(OC(=O)c3cccc(Cl)c3)c1C2=O)c1cccc(Cl)c1	15.1 ± 1.9 µM	25.1 ± 2.8 µM	154 ± 23%	152 ± 15.8%	91 ± 25.2%	83 ± 5.7%	92 ± 8.1%	81 ± 2.5%	98 ± 3.9%	88 ± 7.2%	46 ± 3.5%	101 ± 2.3%	80 ± 6.7%	44 ± 6%	1 ± 0.1%	–	–
O=C(Oc1cccc2c1C(=O)c1cccc(OC(=O)c3ccc(Cl)cc3)c1C2=O)c1ccc(Cl)cc1	48.1 ± 4.5 µM	38.6 ± 3.5 µM	136 ± 5.7%	123 ± 6.2%	107 ± 6%	106 ± 4.5%	106 ± 4.9%	97 ± 4.9%	91 ± 10%	57 ± 1.8%	31 ± 1%	111 ± 6.5%	89 ± 14.3%	48 ± 9%	2 ± 0.2%	–	–
O=C1c2cccc(SCC(O)CO)c2C(=O)c2cccc(SCC(O)CO)c21 (centres unmarked)	34.3 ± 1.8 µM	38.5 ± 1.5 µM	–	–	–	–	–	–	–	–	–	–	–	–	–	83 ± 1.1%	activity at 2.4 µM ([1]; 2.4 μM): 144 ± 16.9%; activity at 24 µM ([1]; 24 μM): 136 ± 10%; activity at 240 µM ([1]; 240 μM): 142 ± 9.1%; activity at 2.4 µM ([2]; 2.4 μM): 105 ± 21.6%; activity at 24 µM ([2]; 24 μM): 90 ± 5.7%; activity at 240 µM ([2]; 240 μM): 81 ± 6.1%; viability at 48 h, 2.4 µM [3]: 102 ± 6.2%; viability at 48 h, 24 µM [3]: 103 ± 4.2%; viability at 48 h, 240 µM [3]: 83 ± 18.2%; viability at 48 h, 2.4 µM [4]: 98 ± 10.7%; viability at 48 h, 24 µM [4]: 86 ± 5.5%; viability at 48 h, 240 µM [4]: 79 ± 8.2%
Cc1c(C)c2c(c(C)c1O)CC[C@@](C)(CCC[C@H](C)CCC[C@H](C)CCCC(C)C)O2 [(+)−α-Tocopherol, reference compound]	–	–	–	–	–	–	–	–	–	–	–	–	–	–	>100%	>100%	Inhibition (%) ([5]; 0.01 mM): 0%; Inhibition (%) ([5]; 0.1 mM): 0%; Inhibition (%) ([5]; 1 mM): 55 ± 1.7%; Inhibition (%) ([5]; 10 mM): 100%
O=C1c2cccc(O)c2C(=O)c2cccc(O)c21 [Anthrarufin, 1,5-dihydroxyanthraquinone, reference compound]	–	–	–	–	–	–	–	–	–	–	–	–	–	–	−36 ± 1.1^ %	−36 ± 1.9%	–

— patent US20050009924A1 (priority 2003, published 2005)
